Laboratory results as given in patent US11351140B2, “Resolvin mimetic antibodies and uses thereof” (J. Craig Venter Institute, Inc., priority 2017, dated 2022).

T1: ERV-1 receptor (CHO-ERV-1 positive cells) (Homo sapiens, UniProt Q99788)
T1 construct: host or cells: CHO-K1/CMKLR1/Ga15 (CHO ERV1+)
T1 sequence (Q99788 1-373): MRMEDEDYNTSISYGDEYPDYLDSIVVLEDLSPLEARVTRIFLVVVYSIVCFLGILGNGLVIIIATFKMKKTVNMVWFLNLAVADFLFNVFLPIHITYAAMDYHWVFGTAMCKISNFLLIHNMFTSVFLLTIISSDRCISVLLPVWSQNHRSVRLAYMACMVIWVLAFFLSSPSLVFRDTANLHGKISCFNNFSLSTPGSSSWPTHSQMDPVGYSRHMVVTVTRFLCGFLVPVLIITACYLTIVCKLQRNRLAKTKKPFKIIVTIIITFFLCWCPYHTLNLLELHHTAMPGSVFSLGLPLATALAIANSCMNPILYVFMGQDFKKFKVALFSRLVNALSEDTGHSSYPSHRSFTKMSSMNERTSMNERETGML

B1: C4: resolvimab, anti-ERV-1 monoclonal antibody; VH SEQ ID NO: 14, VK SEQ ID NO: 16 (antibody, V domains shown)
VH: EVKLEESGAELVMPGASVKLSCKASGYTFTSYWMHWVKQRPGQGLEWVAEIDPSDSYTNYNQKFKGKATLTVDKSSSTAYMQLSSLTSEDSAVYYCARDGDILTTVVAKGFVYWGQGTLV
VL: LSLPVSLGDQASISCRSSQTIVHSNGNTYLEWYLQKPGQSPKLLIYKVSNRFSGVPDRFSGSGSGTDFTLKISRVEAEDLGVYYCFQGSHVPWTFGGGTKLEIK
modifications: Immunoglobulin VH Region; Immunoglobulin VL(K) region

Assays:
[1] = target: T1, ERV-1 receptor (CHO-ERV-1 positive cells); experiment: Intracellular calcium signaling (Calcium5 FLIPR) in CHO ERV1+ cells; format: cell-based; settings: 1, 10, 100 nM
Protocol: To investigate calcium mobilization, cells were transferred to a 96-well plate at density of 60,000 cells per well in 80 μl of growth medium 18 hours prior to the day of experiment and maintained at 37° C./5% CO2.
After aspiration of the media, cells were labeled with the fluorescent probe, Calcium5 FLIPR (Medical Devices). After agonist treatment, detection of changes in fluorescence were detected by microplate reader and expressed as change in relative fluorescence units (ΔRFU).
To investigate calcium mobilization, CHO ERV1+ cells were transferred to a 96-well plate at density of 60,000 cells per well in 80 μl of growth medium 18 hours prior to the day of experiment and maintained at 37° C./5% CO2. After aspiration of the media, cells were labeled with the fluorescent probe, Calcium5 FLIPR (Medical Devices). After agonist treatment, detection of changes in fluorescence were detected by microplate reader and expressed as change in relative fluorescence units (ARFU).
To determine whether the immune complexes between ERV-1 receptor and various anti-ERV-1 antibodies permit the bound immune complex to interact with ERV-1 cellular receptor functions, an in vitro assay was devised. To that end, calcium intracellular signaling was measured upon agonist ligand binding. […] After 20 seconds, calcium mobilization was measured through fluorescence (FIG. 15). […]

ERV1tg mice = experiment: Zymosan-induced peritonitis, peritoneal lavage cells by flow cytometry; format: in vivo; settings: injected together with zymosan; 12 hours of inflammation
Protocol: Cells were extracted from peritoneal exudates collected after 12 hours of intraperitoneal injection of zymosan-A (1 mg/ml in PBS). Isolated cells were incubated with anti-Fc receptor (BD) blocking antibody (5 μg/ml×106 cells, 15 min) and then labeled with anti-human ERV1 alexafluor 488-conjugated antibody (10 μg/ml×106 cells, 1 hour at RT) or anti-IgG alexafluor 488 (isotype control, R&D Systems). Expression of ERV1 on neutrophils was evaluated by immunofluorescence and quantified by flow cytometry. ERV-1, […] positive monocytes were stained with PE-conjugated anti-mouse Arg-1 and FITC-conjugated anti-mouse EGR-(10 μg/ml×106 cells, 1 hour at RT) (BD Biosciences).
Peritonitis was initiated by zymosan particle injections […] to ERV1tg mice peritoneal tissues. It had been previously established that Resolvin-E1 could affect inflammation-related responses in an ERV-1 dependent manner in vivo in cells derived from diabetic subjects (Freire, M. et al., J. Immunol. 198(2):718-728 (2017)). To further understand the biological response induced by resolvimabs, purified clones were injected together with the zymosan stimuli (FIGS. 9A-D). […] We have looked if these compound would influence the phenotype of neutrophils and monocytes after 12 hours of inflammation in vivo.

Row | Molecule | agonist functions (calcium intracellular signaling) [1] | inflammatory infiltrate (flow cytometry quantification) (ERV1tg mice)
1 | CC[C@@H](O)/C=C/C=C\C[C@@H](O)/C=C/C=C/C=C\[C@@H](O)CCCC(=O)O [resolvinE-1, resolvin E1] | found | 
2 | B1 |  | decrease
